Measurements reported in patent US10111936B2, “Metal-glycoprotein complexes and photodynamic therapy of immune privileged sites with same” (Theralase Technologies, Inc., priority 2015, dated 2018).

Columns and labels:
[1] = Photobleaching / absorbance stability; type: physicochemical; settings: 525 nm laser; 0.8 mg/mL transferrin
Experimental: Photobleaching was measured: (a) at wavelength in visible range maximal for each photosensitizer. This allows to estimate dynamics of amount of unbleached photosensitizer during irradiation; and (b) at 530, 635 and 808 nm. This allows estimating dynamics of unbleached photosensitizer available to exert PDT effect at these wavelengths as practically useful for PDT treatments.
Photosensitizers (10 uM) were dissolved in phosphate buffer+100 mM NaCl (pH=7.0) alone or in a buffer with 0.8 mg/mL of transferrin at a total volume of 1 mL. The mixture was then exposed to a 525 nm laser source (130 mW) and the absorbance at the maximal absorbance in visible range (432 nm for TLD1433, 425 nm for TLD143310 and 562 nm for TLDOsH2dppn) was measured at specific time points. The plot represents the absorbance ratio (absorbance of exposed samples/absorbance of unexposed sample) as a function of the number of incident photons per cm^−2. Decreasing absorbance ratio signifies bleaching of the photosensitizer.
Photosensitizers (10 uM) were dissolved in phosphate buffer+100 mM NaCl (pH=7.0) alone or in a buffer with 0.8 mg/mL of transferrin at a total volume of 1 mL. The mixture was then exposed to a 525 nm laser source (130 mW) and the absorbance at 530 nm was measured at specific time points. The plot represents the absorbance ratio (absorbance of exposed samples/absorbance of unexposed sample) as a function of the number of incident photons per cm^−2. Decreasing absorbance ratio signifies bleaching of the photosensitizer.
Photosensitizers (10 uM) were dissolved in phosphate buffer+100 mM NaCl (pH=7.0) alone or in a buffer with 0.8 mg/mL of transferrin at a total volume of 1 mL. The mixture was then exposed to a 525 nm laser source (130 mW) and the absorbance at 635 nm was measured at specific time points. The plot represents the absorbance ratio (absorbance of exposed samples/absorbance of unexposed sample) as a function of the number of incident photons per cm^−2. Decreasing absorbance ratio signifies bleaching of the photosensitizer. […]

AY27 cancer cells = experiment: Transferrin receptor antibody blocking, dark toxicity and PDT effect; type: cell-based; settings: 635 nm, 90 J cm−2, anti-transferrin receptor antibody
Experimental: The cells were incubated with anti-transferrin receptor antibody. The photosensitizer was pre-mixed in parallel with 0.4 mg/mL human transferrin and incubated for 1 hour at 37° C. In control group (no additional transferrin), equivalent volume of no-transferrin medium was added. The cells were washed of the excess of antibody (the cells incubated in medium without antibody served as comparison groups) and incubated with the pre-mixes for 30 minutes. After that, the medium was replaced with a fresh one (without photosensitizer and transferrin) and the cells were irradiated. On the next day (21 hours post-irradiation), viability of the cells was measured using Presto Blue viability assay, and percent of cell kill was calculated. The PDT effect shown is a result of subtraction of “photosensitizer alone” and “light alone” cell kill from the total PDT cell kill. Dark toxicity is shown on FIG. 20A, PDT effect is shown on FIG. 20B.
(§1) The cells were incubated with anti-transferrin antibody. […] On the next day (21 hours post-irradiation), viability of the cells was measured using Presto Blue viability assay, and percent of cell kill was calculated. […]
as §1

In the case of `[Os+2].c1ccc2cc3nc4c5cccnc5c5ncccc5c4nc3cc2c1.c1ccc2nc(-c3ccc4ccccc4n3)ccc2c1.c1ccc2nc(-c3ccc4ccccc4n3)ccc2c1` [TLDOsH2dppn], the “photobleaching, absorbance ratio at 530 nm” value [1] was “bleaching of the photosensitizers was reduced”, the “photobleaching, absorbance ratio at 635 nm” value [1] was “bleaching of the photosensitizers was reduced” and the “photobleaching, absorbance ratio at 808 nm” value [1] was “bleaching of the photosensitizers was reduced”. For the same molecule, the “effect of blocking transferrin receptors on dark toxicity and PDT effect” value (AY27 cancer cells) was “prevents decrease in dark toxicity and facilitation of PDT effect”.
